Laboratory results as given in the kinase profiling compilation of Christmann-Franck et al. (2016).

Legend:
Experiment in all cases: KINOMEscan competition binding
Conditions in all cases: compound 10.0 µM
PHKG1 (human) = PHKG1 (human) (UniProt Q16816)
CSF1R (human) = CSF1R (human) (UniProt P07333)
PIM3 (human) = PIM3 (human) (UniProt Q86V86)
STK36 (human) = STK36 (human) (UniProt Q9NRP7)
TEC (human) = TEC (human) (UniProt P42680)
PRKCQ (human) = PRKCQ (human) (UniProt Q04759)
DCLK3 (human) = DCLK3 (human) (UniProt Q9C098)
MAPK13 (human) = MAPK13 (human) (UniProt O15264)
TNK1 (human) = TNK1 (human) (UniProt Q13470)
FLT4 (human) = FLT4 (human) (UniProt P35916)
Sequence of FLT4 (human) (P35916 whole entry, looked up): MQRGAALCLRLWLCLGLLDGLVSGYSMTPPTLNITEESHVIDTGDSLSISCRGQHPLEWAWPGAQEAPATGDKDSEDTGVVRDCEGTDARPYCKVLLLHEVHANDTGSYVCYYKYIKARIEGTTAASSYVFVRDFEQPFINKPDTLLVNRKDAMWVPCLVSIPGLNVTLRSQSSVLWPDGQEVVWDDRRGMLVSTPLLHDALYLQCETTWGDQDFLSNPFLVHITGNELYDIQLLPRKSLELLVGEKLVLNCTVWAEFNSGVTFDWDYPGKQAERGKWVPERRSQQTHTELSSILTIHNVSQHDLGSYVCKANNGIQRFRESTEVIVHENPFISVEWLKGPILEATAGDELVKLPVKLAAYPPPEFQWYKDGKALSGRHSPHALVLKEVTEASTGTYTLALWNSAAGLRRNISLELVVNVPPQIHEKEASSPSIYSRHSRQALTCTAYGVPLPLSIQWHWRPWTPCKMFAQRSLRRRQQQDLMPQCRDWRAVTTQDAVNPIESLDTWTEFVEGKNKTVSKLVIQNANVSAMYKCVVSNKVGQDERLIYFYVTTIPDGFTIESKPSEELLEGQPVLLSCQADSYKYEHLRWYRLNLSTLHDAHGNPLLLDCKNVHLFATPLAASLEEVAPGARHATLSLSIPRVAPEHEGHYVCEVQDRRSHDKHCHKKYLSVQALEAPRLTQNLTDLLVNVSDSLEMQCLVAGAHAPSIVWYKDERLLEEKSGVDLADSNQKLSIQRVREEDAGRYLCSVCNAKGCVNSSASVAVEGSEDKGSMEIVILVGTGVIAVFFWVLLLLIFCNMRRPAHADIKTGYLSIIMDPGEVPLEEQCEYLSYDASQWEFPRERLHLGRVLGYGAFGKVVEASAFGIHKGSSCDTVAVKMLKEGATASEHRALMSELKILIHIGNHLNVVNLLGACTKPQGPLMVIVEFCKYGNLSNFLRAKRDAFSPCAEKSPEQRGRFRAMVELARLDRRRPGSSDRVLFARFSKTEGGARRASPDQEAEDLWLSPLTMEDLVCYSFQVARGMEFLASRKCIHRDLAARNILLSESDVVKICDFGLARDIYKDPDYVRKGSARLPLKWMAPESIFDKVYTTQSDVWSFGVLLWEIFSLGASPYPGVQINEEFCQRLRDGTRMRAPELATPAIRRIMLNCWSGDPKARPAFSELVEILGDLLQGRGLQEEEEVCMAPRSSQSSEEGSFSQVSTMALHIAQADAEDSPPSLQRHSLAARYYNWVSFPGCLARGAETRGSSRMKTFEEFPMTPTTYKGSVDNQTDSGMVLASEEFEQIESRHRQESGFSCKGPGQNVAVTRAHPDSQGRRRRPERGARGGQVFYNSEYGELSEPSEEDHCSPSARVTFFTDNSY

RPS6KA4 KD2 (human) = RPS6KA4 KD2 (human) (UniProt O75676)
CHEK1 (human) = CHEK1 (human) (UniProt O14757)
STK3 (human) = STK3 (human) (UniProt Q13188)
Sequence of STK3 (human) (Q13188 whole entry, looked up): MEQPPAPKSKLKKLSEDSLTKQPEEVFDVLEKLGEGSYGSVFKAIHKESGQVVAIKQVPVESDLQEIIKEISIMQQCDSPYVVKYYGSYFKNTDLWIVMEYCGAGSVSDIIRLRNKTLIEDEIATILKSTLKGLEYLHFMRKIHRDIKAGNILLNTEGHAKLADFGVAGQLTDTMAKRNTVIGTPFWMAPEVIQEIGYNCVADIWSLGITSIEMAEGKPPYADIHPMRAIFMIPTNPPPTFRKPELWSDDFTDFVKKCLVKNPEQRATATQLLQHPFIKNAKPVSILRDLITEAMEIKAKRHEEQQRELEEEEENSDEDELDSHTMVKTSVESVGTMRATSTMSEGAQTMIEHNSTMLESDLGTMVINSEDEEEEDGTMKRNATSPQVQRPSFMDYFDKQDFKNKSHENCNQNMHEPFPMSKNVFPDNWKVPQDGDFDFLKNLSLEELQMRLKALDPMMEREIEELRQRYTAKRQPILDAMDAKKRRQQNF

MAP2K5 (human) = MAP2K5 (human) (UniProt Q13163)
MLTK (human) = MLTK (human) (UniProt Q9NYL2)
EPHB4 (human) = EPHB4 (human) (UniProt P54760)
LIMK1 (human) = LIMK1 (human) (UniProt P53667)
EPHB2 (human) = EPHB2 (human) (UniProt P29323)
INSRR (human) = INSRR (human) (UniProt P14616)
CDK3 (human) = CDK3 (human) (UniProt Q00526)
STK24 (human) = STK24 (human) (UniProt Q9Y6E0)
EPHB3 (human) = EPHB3 (human) (UniProt P54753)
BMPR1A (human) = BMPR1A (human) (UniProt P36894)
MARK2 (human) = MARK2 (human) (UniProt Q7KZI7)
MAP3K7 (human) = MAP3K7 (human) (UniProt O43318)
PRKX (human) = PRKX (human) (UniProt P51817)
PKN2 (human) = PKN2 (human) (UniProt Q16513)
PHKG2 (human) = PHKG2 (human) (UniProt P15735)
FGFR3 (human) = FGFR3 (human) (UniProt P22607)
CIT (human) = CIT (human) (UniProt O14578)
VRK2 (human) = VRK2 (human) (UniProt Q86Y07)
BRAF (human) = BRAF (human) (UniProt P15056)
SRPK1 (human) = SRPK1 (human) (UniProt Q96SB4)
RPS6KA1 KD1 (human) = RPS6KA1 KD1 (human) (UniProt Q15418)
Sequence of RPS6KA1 KD1 (human) (Q15418 whole entry, looked up): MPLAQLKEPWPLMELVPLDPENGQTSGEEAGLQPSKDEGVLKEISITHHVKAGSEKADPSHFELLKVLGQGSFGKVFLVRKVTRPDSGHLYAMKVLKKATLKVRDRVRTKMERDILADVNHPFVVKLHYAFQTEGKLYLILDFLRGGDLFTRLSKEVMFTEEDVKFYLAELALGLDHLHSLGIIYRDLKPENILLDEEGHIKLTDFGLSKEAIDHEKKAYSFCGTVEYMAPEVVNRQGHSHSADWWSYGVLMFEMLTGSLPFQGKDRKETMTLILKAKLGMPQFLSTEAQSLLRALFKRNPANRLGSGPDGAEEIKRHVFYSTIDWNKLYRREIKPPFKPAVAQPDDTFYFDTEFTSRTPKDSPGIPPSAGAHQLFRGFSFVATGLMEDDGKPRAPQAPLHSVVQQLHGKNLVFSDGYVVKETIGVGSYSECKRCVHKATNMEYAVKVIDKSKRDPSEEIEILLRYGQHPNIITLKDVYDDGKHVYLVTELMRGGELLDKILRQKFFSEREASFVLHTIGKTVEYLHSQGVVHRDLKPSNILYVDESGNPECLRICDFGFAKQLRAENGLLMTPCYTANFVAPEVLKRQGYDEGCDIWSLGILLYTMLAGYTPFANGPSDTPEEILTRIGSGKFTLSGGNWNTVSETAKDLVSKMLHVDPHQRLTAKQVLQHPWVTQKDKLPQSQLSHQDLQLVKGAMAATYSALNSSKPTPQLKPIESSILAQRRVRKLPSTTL

MET (human) = MET (human) (UniProt P08581)
Sequence of MET (human) (P08581 whole entry, looked up): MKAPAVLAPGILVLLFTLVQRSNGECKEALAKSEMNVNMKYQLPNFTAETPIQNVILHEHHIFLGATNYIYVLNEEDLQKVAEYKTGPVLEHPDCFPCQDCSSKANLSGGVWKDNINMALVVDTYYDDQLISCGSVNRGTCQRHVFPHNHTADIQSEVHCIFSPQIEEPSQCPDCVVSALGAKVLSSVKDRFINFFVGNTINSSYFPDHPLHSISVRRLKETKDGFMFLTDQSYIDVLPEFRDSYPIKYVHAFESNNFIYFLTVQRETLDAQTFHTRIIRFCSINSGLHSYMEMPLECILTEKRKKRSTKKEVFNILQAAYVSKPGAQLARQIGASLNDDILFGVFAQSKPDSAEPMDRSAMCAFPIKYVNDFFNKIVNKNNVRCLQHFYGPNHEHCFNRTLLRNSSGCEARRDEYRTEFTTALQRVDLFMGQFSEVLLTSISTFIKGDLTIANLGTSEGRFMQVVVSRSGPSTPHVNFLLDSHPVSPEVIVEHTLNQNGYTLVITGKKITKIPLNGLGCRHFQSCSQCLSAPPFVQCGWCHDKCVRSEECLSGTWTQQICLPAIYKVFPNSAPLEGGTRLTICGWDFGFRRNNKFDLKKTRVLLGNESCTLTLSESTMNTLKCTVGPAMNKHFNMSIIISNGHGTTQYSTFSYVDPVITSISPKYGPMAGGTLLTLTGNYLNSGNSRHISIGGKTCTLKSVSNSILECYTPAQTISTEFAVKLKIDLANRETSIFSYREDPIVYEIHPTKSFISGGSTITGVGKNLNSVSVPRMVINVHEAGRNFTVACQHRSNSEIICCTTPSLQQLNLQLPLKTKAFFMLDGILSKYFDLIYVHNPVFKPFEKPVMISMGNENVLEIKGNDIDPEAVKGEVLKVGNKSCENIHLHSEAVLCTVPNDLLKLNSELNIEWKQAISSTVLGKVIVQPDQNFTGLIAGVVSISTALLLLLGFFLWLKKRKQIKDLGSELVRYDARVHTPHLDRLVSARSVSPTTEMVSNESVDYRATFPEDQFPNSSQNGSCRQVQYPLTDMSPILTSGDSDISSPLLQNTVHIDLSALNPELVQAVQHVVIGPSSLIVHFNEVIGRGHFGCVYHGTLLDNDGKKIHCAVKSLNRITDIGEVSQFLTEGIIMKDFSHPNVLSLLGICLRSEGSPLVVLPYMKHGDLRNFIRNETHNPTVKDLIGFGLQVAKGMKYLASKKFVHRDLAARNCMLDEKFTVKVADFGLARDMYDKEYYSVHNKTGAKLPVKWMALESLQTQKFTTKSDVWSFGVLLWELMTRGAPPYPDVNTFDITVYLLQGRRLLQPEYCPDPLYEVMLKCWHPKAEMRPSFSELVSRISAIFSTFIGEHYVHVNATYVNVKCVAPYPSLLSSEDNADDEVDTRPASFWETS

FES (human) = FES (human) (UniProt P07332)
NTRK3 (human) = NTRK3 (human) (UniProt Q16288)
ALK (human) = ALK (human) (UniProt Q9UM73)
MAP4K2 (human) = MAP4K2 (human) (UniProt Q12851)
[1] = test system: RET (human), P07949 [V804M]

Sequence of PRKCQ (human) (Q04759 whole entry, looked up): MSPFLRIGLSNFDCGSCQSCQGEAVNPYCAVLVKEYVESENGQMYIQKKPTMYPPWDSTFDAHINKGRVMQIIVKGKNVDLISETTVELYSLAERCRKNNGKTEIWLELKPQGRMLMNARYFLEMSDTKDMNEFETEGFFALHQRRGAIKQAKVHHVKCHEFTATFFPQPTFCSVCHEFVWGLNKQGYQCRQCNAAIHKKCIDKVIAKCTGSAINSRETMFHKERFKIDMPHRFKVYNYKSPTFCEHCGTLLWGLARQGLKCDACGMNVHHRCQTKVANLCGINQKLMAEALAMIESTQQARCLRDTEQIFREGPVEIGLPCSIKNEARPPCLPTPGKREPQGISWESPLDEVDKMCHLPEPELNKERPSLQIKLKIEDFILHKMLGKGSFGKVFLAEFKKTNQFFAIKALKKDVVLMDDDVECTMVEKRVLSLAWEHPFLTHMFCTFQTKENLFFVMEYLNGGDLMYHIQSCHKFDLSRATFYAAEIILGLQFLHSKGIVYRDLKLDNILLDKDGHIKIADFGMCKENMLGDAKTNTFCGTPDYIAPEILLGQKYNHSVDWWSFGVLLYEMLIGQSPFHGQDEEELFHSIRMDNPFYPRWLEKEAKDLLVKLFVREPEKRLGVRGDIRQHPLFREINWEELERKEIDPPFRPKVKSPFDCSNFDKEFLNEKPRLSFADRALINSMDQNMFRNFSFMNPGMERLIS

| Structure (SMILES) | kinase still bound, per cent of control (PHKG1 (human)) | kinase still bound, per cent of control (CSF1R (human)) | kinase still bound, per cent of control (PIM3 (human)) | kinase still bound, per cent of control (STK36 (human)) | kinase still bound, per cent of control (TEC (human)) | kinase still bound, per cent of control (PRKCQ (human)) | kinase still bound, per cent of control (DCLK3 (human)) | kinase still bound, per cent of control (MAPK13 (human)) | kinase still bound, per cent of control (TNK1 (human)) | kinase still bound, per cent of control (FLT4 (human)) | kinase still bound, per cent of control (RPS6KA4 KD2 (human)) | kinase still bound, per cent of control (CHEK1 (human)) | kinase still bound, per cent of control (STK3 (human)) | kinase still bound, per cent of control (MLTK (human)) | kinase still bound, per cent of control (EPHB4 (human)) | kinase still bound, per cent of control (LIMK1 (human)) | kinase still bound, per cent of control (EPHB2 (human)) | kinase still bound, per cent of control (INSRR (human)) | kinase still bound, per cent of control (CDK3 (human)) | kinase still bound, per cent of control (STK24 (human)) | further results |
| --- | --- | --- | --- | --- | --- | --- | --- | --- | --- | --- | --- | --- | --- | --- | --- | --- | --- | --- | --- | --- | --- |
| C[C@@H](Oc1cc(-c2cnn(C3CCNCC3)c2)cnc1N)c1c(Cl)ccc(F)c1Cl | 100% | 0.15% | 100% | 100% | 100% | 88% | 42% | 100% | 7.1% | 100% | 50% | 91% | 0% | 100% | 4.8% | 2.7% | 24% | 0.25% | 100% | 44% | kinase still bound, per cent of control (MAP2K5 (human)): 54%; kinase still bound, per cent of control (EPHB3 (human)): 100%; kinase still bound, per cent of control (BMPR1A (human)): 0.15%; kinase still bound, per cent of control (MARK2 (human)): 20%; kinase still bound, per cent of control (MAP3K7 (human)): 8.2%; kinase still bound, per cent of control (PRKX (human)): 94%; kinase still bound, per cent of control (PKN2 (human)): 26%; kinase still bound, per cent of control (PHKG2 (human)): 32%; kinase still bound, per cent of control (FGFR3 (human)): 22%; kinase still bound, per cent of control (CIT (human)): 62%; kinase still bound, per cent of control (VRK2 (human)): 100%; kinase still bound, per cent of control (BRAF (human)): 53%; kinase still bound, per cent of control (SRPK1 (human)): 26% |
| CS(=O)(=O)N1CCN(Cc2cc3nc(-c4cccc5[nH]ncc45)nc(N4CCOCC4)c3s2)CC1 | 100% | 100% | 100% | 100% | 100% | 100% | 100% | 100% | 100% | 100% | 100% | 100% | 100% | 100% | 100% | 100% | 100% | 100% | 100% | 100% | kinase still bound, per cent of control (RPS6KA1 KD1 (human)): 100%; kinase still bound, per cent of control (MET (human)): 100%; kinase still bound, per cent of control (FES (human)): 100%; kinase still bound, per cent of control (NTRK3 (human)): 100%; kinase still bound, per cent of control (EPHB3 (human)): 100%; kinase still bound, per cent of control (BMPR1A (human)): 100%; kinase still bound, per cent of control (MARK2 (human)): 100%; kinase still bound, per cent of control (MAP3K7 (human)): 100%; kinase still bound, per cent of control (ALK (human)): 100%; kinase still bound, per cent of control (PRKX (human)): 100%; kinase still bound, per cent of control (MAP4K2 (human)): 100%; kinase still bound, per cent of control (PKN2 (human)): 100%; kinase still bound, per cent of control (PHKG2 (human)): 100%; kinase still bound, per cent of control (FGFR3 (human)): 100%; kinase still bound, per cent of control (CIT (human)): 100%; kinase still bound, per cent of control (BRAF (human)): 100%; kinase still bound, per cent of control (SRPK1 (human)): 100%; kinase still bound, per cent of control [1]: 100% |
| Cc1n[nH]c2ccc(-c3cncc(OC[C@@H](N)Cc4c[nH]c5ccccc45)c3)cc12 | 8% | 100% | 0.75% | 100% | 100% | 0% | 2% | 4.4% | 100% | 100% | 9.9% | 100% | 0.35% | 100% | 100% | 100% | 100% | 100% | 22% | 100% | kinase still bound, per cent of control (RPS6KA1 KD1 (human)): 100%; kinase still bound, per cent of control (MET (human)): 100%; kinase still bound, per cent of control (FES (human)): 100%; kinase still bound, per cent of control (NTRK3 (human)): 100%; kinase still bound, per cent of control (EPHB3 (human)): 100%; kinase still bound, per cent of control (BMPR1A (human)): 100%; kinase still bound, per cent of control (MARK2 (human)): 13%; kinase still bound, per cent of control (MAP3K7 (human)): 3.2%; kinase still bound, per cent of control (ALK (human)): 100%; kinase still bound, per cent of control (PRKX (human)): 12%; kinase still bound, per cent of control (MAP4K2 (human)): 8.8%; kinase still bound, per cent of control (PKN2 (human)): 2.4%; kinase still bound, per cent of control (PHKG2 (human)): 23%; kinase still bound, per cent of control (FGFR3 (human)): 100%; kinase still bound, per cent of control (CIT (human)): 0.2%; kinase still bound, per cent of control (BRAF (human)): 100%; kinase still bound, per cent of control (SRPK1 (human)): 17%; kinase still bound, per cent of control [1]: 10% |
| COc1cc(N2CCN(C)CC2)ccc1Nc1ncc2c(n1)N(C)c1ccccc1C(=O)N2C | 100% | 16% | 100% | 100% | 100% | 100% | 16% | 100% | 0.4% | 100% | 100% | 100% | 100% | 100% | 100% | 100% | 100% | 100% | 100% | 100% | kinase still bound, per cent of control (RPS6KA1 KD1 (human)): 100%; kinase still bound, per cent of control (MET (human)): 100%; kinase still bound, per cent of control (FES (human)): 100%; kinase still bound, per cent of control (NTRK3 (human)): 100%; kinase still bound, per cent of control (EPHB3 (human)): 100%; kinase still bound, per cent of control (BMPR1A (human)): 100%; kinase still bound, per cent of control (MARK2 (human)): 100%; kinase still bound, per cent of control (MAP3K7 (human)): 100%; kinase still bound, per cent of control (ALK (human)): 16%; kinase still bound, per cent of control (PRKX (human)): 100%; kinase still bound, per cent of control (MAP4K2 (human)): 100%; kinase still bound, per cent of control (PKN2 (human)): 100%; kinase still bound, per cent of control (PHKG2 (human)): 29%; kinase still bound, per cent of control (FGFR3 (human)): 100%; kinase still bound, per cent of control (CIT (human)): 100%; kinase still bound, per cent of control (BRAF (human)): 100%; kinase still bound, per cent of control (SRPK1 (human)): 100%; kinase still bound, per cent of control [1]: 100% |
